Calls of active or inactive are those of the source.
Assays:
[1] = cells; type: functional, cell-based
[2] = cells; type: functional, cell-based; remark: listed apart in the source
[3] = biological target: T1, Insulin-degrading enzyme (Homo sapiens, UniProt P14735); assay: recombinant IDE activation, cell-free – biochemical, fluorescence polarization, counter-screen for IDE activator project, dose response (AID 588681)
[4] = biological target: T1, Insulin-degrading enzyme; assay: cellular IDE activation of Abeta substrate cleavage – fluorescence polarization, HEK cells, dose response (AID 588439); type: functional, cell-based
[5] = test system: HEK293; assay: membrane integrity loss in HEK cells – cell-based, fluorescence, cytotoxicity control for IDE activator project, dose response (AID 588440); type: functional; conditions: Homo sapiens;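 note: cytotoxicity by LDH release measuring loss of membrane integrity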
[6] = test system: HEK293; assay: optical interference in Abeta FP readout, dose response, artefact control for IDE activator project, biochemical, fluorescence polarization (AID 588442); type: functional, cell-based; conditions: Homo sapiens
[7] = biological target: Cyclin-dependent kinase 8 (Homo sapiens, UniProt P49336); assay: Navigating the Kinome. Panel member name: CDK8; type: functional
[8] = biological target: Dual specificity protein kinase CLK4 (Homo sapiens, UniProt Q9HAZ1); type: functional
[9] = biological target: Aurora kinase A (Homo sapiens, UniProt O14965); type: functional;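 note: value from the Navigating the Kinome kinase panel profiling, panel entry STK6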
[10] = biological target: Vascular endothelial growth factor receptor 2 (Homo sapiens, UniProt P35968); type: functional
[11] = biological target: Aurora kinase B (Homo sapiens, UniProt Q96GD4); type: functional
[12] = biological target: Tyrosine-protein kinase receptor TYRO3 (Homo sapiens, UniProt Q06418); type: functional;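 note: TYRO3 value obtained as one member of a kinome-wide profiling panel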
[13] = biological target: Dual specificity tyrosine-phosphorylation-regulated kinase 1B (Homo sapiens, UniProt Q9Y463); assay: Navigating the Kinome. Panel member name: DYRK1B; type: functional
[14] = biological target: T2, Sentrin-specific protease 8 (Homo sapiens, UniProt Q96LD8); assay: inhibition of human SENP8 cleavage activity – biochemical, luminescence, SAR follow-up (AID 504501); type: functional
T2 sequence (Q96LD8 whole entry): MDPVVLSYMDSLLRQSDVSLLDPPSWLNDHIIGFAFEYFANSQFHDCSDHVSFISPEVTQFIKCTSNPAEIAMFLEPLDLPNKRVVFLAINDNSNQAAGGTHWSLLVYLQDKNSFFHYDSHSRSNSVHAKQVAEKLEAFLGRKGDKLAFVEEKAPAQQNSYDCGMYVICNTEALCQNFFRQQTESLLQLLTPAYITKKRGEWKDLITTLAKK

[15] = biological target: T3, Caspase-3 (Homo sapiens, UniProt P42574); assay: SAR Analysis of small molecule inhibitors of Sentrin-specific proteases (SENPs) using a Caspase-3 Selectivity assay. [Related pubchem assays (depositor defined):AID2540, AID2599, AID434973, AID489001]; type: functional
T3 sequence (P42574 whole entry): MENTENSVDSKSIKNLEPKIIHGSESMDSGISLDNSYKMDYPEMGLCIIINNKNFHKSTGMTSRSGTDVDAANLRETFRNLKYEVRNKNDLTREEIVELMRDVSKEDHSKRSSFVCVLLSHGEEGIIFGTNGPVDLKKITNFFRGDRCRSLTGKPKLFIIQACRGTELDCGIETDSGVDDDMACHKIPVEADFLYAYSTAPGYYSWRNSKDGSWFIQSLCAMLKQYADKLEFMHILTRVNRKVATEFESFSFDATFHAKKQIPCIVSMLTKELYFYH

[16] = biological target: T4, Sentrin-specific protease 6 (Homo sapiens, UniProt Q9GZR1); assay: SAR Analysis of small molecule inhibitors of Sentrin-specific protease 6 (SENP6) using a Luminescent assay. [Related pubchem assays (depositor defined):AID2582, AID2599]; type: functional
T4 sequence (Q9GZR1 whole entry): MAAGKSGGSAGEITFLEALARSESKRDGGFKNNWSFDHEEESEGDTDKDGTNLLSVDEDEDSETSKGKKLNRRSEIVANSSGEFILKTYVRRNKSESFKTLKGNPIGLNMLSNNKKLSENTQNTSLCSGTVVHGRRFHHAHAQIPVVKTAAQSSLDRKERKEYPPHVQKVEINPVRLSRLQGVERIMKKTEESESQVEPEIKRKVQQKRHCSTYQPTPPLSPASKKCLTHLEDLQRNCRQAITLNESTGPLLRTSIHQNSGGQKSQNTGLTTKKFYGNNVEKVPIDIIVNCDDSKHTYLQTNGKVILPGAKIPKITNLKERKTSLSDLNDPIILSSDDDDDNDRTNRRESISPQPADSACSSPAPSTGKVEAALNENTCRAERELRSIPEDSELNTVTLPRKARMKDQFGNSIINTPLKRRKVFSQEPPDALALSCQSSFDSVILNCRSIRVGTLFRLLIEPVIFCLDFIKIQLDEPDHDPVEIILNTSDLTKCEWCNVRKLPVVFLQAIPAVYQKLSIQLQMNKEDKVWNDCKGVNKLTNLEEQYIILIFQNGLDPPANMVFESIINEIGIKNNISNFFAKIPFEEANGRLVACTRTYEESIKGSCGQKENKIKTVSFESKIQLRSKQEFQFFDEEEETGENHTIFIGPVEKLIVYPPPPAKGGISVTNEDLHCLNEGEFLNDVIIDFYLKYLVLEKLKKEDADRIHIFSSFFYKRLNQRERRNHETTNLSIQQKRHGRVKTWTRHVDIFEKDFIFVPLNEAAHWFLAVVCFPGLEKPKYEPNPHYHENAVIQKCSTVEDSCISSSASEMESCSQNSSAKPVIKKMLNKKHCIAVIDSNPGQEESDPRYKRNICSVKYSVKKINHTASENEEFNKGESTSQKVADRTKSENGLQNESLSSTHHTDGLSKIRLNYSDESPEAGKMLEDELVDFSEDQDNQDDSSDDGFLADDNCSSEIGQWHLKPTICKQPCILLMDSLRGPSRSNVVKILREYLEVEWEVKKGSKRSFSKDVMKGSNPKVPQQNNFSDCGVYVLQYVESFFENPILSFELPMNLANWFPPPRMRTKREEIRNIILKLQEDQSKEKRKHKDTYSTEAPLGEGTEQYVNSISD

[17] = biological target: T5, Sentrin-specific protease 7 (Homo sapiens, UniProt Q9BQF6); assay: inhibition of human SENP7 cleavage activity – biochemical, luminescence, SAR follow-up (AID 504497); type: functional
T5 sequence (Q9BQF6 whole entry): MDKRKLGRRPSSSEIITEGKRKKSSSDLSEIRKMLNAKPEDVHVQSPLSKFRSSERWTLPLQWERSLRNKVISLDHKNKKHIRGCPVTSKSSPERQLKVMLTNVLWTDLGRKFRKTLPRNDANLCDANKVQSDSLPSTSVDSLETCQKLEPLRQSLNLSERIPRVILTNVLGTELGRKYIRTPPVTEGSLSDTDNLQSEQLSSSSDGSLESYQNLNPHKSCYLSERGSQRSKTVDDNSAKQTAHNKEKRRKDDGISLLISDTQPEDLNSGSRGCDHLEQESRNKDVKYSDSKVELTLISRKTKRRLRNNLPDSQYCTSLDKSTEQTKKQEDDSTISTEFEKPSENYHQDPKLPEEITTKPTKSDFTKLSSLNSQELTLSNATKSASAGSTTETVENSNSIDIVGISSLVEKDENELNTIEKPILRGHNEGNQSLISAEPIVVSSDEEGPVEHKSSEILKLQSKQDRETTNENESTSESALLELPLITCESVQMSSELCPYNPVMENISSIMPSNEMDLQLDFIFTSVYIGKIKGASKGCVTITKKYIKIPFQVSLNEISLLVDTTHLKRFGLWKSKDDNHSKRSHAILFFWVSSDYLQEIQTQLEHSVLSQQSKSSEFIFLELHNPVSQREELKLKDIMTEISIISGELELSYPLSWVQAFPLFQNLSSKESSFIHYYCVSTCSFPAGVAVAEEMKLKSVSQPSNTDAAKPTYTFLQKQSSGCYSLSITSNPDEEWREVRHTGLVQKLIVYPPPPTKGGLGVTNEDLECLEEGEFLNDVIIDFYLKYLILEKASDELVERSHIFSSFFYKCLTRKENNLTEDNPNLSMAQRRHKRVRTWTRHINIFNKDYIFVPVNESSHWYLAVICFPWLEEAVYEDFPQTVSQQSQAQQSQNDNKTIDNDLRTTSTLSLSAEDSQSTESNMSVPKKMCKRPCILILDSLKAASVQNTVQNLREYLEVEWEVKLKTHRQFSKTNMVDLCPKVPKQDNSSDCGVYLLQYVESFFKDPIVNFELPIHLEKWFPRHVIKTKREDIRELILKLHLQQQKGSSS

[18] = biological target: Cyclin-dependent kinase 19 (Homo sapiens, UniProt Q9BWU1); assay: Navigating the Kinome. Panel member name: CDC2L6; type: functional
[19] = biological target: Vascular endothelial growth factor receptor 1 (Homo sapiens, UniProt P17948); type: functional;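 note: measured within a kinome-wide profiling panel, FLT1 as the panel member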
[20] = Trypanosoma cruzi growth suppression in host cells – NIH3T3 host cells, beta-gal luminescence, confirmation (AID 2044); type: functional, cell-based;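 note: intracellular parasites grown in NIH/3T3 mouse fibroblasts as host cells; luminescent beta-galactosidase reporter signal from transgenic T. cruzi replicating inside host cells; inhibitors lower the luminescence signal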
[21] = NIH3T3 cell viability loss – ATP luminescence, mouse fibroblasts, counter-screen, dose response (AID 2010); type: functional, cell-based;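 note: cells exposed to compound for about 90 hours before reading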
[22] = biological target: Melanocortin receptor 4 (Homo sapiens, UniProt P32245); assay: inhibitors of MC4R cAMP signaling – cell-based, TR-FRET, biased antagonists, dose response (AID 602298); type: functional;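 note: antagonist potency against agonist-stimulated cAMP production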
[23] = cAMP pathway inhibition in counterscreen cell line – TR-FRET cAMP detection, counter-screen for MC4R biased antagonist project, dose response (AID 602305); type: functional, cell-based;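 note: U2OS cells stimulated with forskolin near its EC80 as the cAMP inducer; potency is for inhibition of forskolin-stimulated cAMP signaling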
[24] = test system: NIH3T3; assay: NIH-3T3 viability with fluconazole co-treatment – cell-based, Alamar Blue, dry powder, set 2, cytotoxicity control for antifungal resistance reversal project, dose response (AID 488911); type: functional; conditions: Mus musculus
[25] = biological target: Protein disulfide-isomerase (Homo sapiens, UniProt P07237); assay: inhibition of PDI-driven insulin aggregation – biochemical, turbidity, absorbance, cherry-picked samples, dose response (AID 602350); type: functional
[26] = biological target: Neuropeptides B/W receptor type 1 (Homo sapiens, UniProt P48145); assay: human NPBW1 receptor blockade, IC50 – cell-based, fluorescence, dose response, set 5, late-stage follow-up (AID 588566); type: functional
[27] = biological target: Melanin-concentrating hormone receptor 1 (Homo sapiens, UniProt Q99705); assay: Late-stage fluorescence-based counterscreen for antagonists of the G-protein coupled receptor 7 (GPR7): cell-based dose response assay to identify antagonists of the melanin-concentrating hormone receptor 1 (MCHR1) Set 5.; type: functional
[28] = biological target: Multidrug resistance protein CDR1 (Candida albicans, UniProt P43071); assay: inhibition of Nile Red efflux via Candida CDR1 – S. cerevisiae AD1-8u, singleplex, Cherry Pick1 hits, dose response (AID 588606); type: functional
[29] = Vero cell cytotoxicity, dose response, cytotoxicity control for M. tuberculosis growth inhibitor project, Vero cells, purified and synthesized compounds, set 5 (AID 504909); type: functional; conditions: Mycobacterium tuberculosis
[30] = A Cell Based Secondary Assay to Explore Cytotoxicity in THP-1 Cells of Compounds that Modulate Mycobacterium tuberculosis in Media Containing Glycerol versus Media without Glycerol (2).; type: functional
[31] = Vero cell cytotoxicity, cytotoxicity control for M. tuberculosis inhibitor project, purified and synthesized samples, set 3 (AID 504684); type: functional
[32] = THP-1 cell cytotoxicity, cytotoxicity control, set 4 (AID 504911); type: functional; conditions: Mycobacterium tuberculosis
[33] = A Cell Based Secondary Assay to Explore Cytotoxicity in HepG2 Cells of Compounds that Modulate Mycobacterium tuberculosis in Media Containing Glycerol versus Media without Glycerol (2).; type: functional
[34] = THP-1 cell cytotoxicity, dose response, cytotoxicity control, set 3 (AID 504852); type: functional; conditions: Mycobacterium tuberculosis
[35] = Vero cell cytotoxicity, dose response, cytotoxicity control for M. tuberculosis growth inhibitor project, Vero cells, purified and synthesized compounds, set 4 (AID 504854); type: functional; conditions: Mycobacterium tuberculosis

T1 sequence (P14735 whole entry): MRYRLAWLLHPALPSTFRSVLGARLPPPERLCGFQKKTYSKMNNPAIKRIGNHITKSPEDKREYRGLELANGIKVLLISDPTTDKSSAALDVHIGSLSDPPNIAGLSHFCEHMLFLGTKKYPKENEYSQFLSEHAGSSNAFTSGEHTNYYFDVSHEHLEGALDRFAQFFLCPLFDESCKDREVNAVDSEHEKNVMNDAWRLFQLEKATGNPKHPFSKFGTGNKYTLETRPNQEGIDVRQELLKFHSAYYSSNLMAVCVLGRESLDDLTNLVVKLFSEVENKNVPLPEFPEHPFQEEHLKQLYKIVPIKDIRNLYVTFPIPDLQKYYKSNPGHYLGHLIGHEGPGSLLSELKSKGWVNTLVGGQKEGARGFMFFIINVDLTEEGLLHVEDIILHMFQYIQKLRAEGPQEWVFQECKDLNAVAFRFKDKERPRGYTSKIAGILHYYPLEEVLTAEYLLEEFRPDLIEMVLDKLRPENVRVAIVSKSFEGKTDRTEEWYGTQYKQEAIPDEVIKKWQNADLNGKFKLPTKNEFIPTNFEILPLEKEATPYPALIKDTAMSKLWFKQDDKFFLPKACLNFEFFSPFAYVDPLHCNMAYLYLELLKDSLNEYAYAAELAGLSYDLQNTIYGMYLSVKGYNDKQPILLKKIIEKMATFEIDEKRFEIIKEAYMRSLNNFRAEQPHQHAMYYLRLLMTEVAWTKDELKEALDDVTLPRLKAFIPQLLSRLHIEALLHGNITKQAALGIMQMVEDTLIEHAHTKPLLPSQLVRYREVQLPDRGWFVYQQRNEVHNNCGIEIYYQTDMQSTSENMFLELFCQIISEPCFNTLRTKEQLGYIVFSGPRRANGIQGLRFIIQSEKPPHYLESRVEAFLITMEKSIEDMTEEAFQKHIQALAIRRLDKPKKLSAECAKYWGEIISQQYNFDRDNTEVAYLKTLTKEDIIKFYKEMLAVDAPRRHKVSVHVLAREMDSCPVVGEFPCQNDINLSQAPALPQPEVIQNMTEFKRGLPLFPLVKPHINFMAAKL
Sequence of Cyclin-dependent kinase 19 (Q9BWU1 whole entry): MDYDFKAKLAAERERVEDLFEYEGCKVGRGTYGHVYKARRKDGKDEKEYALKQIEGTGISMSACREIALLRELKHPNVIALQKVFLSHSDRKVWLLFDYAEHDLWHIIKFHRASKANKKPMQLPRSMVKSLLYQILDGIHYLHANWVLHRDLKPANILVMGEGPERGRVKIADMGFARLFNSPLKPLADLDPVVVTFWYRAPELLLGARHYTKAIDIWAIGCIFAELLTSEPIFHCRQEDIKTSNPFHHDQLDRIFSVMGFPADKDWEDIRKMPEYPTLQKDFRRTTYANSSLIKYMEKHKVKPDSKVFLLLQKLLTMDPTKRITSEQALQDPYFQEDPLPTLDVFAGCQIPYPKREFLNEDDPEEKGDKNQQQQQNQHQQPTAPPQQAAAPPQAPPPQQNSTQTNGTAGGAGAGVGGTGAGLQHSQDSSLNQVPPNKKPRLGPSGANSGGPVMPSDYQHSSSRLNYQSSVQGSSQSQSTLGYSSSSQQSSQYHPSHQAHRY
Sequence of Melanocortin receptor 4 (P32245 whole entry): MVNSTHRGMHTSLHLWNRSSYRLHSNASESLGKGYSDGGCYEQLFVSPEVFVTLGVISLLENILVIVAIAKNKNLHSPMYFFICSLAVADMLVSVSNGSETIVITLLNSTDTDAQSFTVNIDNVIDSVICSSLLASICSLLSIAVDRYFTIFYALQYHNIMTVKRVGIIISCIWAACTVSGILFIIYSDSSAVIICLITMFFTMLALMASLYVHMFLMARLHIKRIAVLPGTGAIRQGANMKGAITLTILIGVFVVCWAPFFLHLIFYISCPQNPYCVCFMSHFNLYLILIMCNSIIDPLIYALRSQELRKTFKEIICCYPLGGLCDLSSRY
Sequence of Tyrosine-protein kinase receptor TYRO3 (Q06418 whole entry): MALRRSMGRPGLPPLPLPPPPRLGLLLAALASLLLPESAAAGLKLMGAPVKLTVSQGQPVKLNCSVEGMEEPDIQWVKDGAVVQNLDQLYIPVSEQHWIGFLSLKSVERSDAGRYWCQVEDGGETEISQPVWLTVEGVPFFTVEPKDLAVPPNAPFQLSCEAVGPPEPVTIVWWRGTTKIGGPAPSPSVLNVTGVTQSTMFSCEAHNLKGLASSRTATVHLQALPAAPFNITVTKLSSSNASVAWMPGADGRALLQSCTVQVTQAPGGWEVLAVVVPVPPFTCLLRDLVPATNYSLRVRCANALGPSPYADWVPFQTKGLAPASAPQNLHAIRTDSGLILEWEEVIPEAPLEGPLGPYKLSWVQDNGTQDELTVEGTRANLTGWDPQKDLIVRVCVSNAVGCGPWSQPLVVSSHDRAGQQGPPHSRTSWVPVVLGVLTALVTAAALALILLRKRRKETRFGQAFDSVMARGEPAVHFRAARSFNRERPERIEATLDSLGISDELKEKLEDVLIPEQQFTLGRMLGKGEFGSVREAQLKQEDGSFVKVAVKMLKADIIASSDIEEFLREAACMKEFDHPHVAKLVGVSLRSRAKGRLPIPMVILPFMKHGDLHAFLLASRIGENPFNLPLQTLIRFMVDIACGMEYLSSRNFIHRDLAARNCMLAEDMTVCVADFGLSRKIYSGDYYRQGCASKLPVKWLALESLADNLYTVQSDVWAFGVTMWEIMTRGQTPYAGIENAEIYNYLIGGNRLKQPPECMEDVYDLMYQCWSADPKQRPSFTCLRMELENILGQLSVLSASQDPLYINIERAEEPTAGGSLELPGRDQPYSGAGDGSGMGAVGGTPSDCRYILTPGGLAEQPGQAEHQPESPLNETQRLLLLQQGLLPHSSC
Sequence of Dual specificity tyrosine-phosphorylation-regulated kinase 1B (Q9Y463 whole entry): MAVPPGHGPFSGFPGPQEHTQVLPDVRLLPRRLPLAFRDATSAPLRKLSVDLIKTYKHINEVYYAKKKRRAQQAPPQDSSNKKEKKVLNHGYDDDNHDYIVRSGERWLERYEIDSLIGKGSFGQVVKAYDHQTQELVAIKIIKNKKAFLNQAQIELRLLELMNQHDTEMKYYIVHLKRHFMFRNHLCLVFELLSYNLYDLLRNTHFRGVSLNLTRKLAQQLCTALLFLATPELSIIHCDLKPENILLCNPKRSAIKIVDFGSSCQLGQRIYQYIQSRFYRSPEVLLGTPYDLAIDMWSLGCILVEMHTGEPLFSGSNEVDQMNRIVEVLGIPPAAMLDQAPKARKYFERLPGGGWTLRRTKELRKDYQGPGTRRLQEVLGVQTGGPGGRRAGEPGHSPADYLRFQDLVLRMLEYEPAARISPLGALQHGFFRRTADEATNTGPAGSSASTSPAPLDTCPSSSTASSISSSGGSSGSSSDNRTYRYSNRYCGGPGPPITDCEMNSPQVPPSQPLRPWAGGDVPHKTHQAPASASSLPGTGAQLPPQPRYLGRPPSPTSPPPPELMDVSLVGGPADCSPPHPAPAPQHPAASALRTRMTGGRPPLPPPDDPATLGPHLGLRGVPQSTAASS
Sequence of Dual specificity protein kinase CLK4 (Q9HAZ1 whole entry): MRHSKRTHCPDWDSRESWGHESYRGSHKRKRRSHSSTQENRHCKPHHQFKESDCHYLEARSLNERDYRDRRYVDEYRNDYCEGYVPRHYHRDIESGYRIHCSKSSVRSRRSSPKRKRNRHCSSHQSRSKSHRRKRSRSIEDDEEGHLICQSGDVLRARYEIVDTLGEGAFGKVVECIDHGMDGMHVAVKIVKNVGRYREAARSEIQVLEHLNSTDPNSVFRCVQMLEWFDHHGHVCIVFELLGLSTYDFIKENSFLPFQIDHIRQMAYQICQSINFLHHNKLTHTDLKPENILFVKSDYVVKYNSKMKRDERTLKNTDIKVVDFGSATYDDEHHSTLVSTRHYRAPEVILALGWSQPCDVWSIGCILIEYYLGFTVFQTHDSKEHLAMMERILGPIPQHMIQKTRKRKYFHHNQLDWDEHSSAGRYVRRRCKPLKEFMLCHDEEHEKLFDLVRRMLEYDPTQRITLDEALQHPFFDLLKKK
Sequence of Aurora kinase A (O14965 whole entry): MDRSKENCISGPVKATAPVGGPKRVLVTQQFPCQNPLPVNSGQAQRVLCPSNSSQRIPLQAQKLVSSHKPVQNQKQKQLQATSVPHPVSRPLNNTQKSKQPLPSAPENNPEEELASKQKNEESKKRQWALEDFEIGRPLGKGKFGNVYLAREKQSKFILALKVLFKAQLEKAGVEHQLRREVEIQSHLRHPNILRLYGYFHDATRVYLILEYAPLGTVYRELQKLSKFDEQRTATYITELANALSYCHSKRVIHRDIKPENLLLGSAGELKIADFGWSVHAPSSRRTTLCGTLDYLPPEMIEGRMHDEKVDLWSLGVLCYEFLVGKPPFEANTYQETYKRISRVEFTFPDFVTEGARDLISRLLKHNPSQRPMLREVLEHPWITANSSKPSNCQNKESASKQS
Sequence of Melanin-concentrating hormone receptor 1 (Q99705 whole entry): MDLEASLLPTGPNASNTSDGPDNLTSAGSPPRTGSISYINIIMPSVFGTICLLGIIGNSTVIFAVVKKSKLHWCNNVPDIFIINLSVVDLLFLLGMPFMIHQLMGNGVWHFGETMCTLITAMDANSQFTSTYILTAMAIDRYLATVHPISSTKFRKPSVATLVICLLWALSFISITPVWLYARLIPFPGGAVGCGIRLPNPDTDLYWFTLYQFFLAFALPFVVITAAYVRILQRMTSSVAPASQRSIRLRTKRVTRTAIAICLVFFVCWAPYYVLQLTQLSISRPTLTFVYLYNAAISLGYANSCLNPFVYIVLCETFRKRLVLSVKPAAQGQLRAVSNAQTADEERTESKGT
Sequence of Neuropeptides B/W receptor type 1 (P48145 whole entry): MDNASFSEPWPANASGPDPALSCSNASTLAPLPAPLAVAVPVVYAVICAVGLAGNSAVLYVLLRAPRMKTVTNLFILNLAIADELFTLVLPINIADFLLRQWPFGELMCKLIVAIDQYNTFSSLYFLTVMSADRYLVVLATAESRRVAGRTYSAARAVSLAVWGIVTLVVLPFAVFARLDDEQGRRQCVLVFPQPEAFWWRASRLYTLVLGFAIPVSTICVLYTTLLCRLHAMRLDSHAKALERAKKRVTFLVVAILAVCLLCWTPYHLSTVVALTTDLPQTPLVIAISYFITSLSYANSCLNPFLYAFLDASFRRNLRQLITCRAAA

COc1ccc(NC(=O)C2CCN(S(=O)(=O)c3ccc4c(c3)CC(C)N4C(C)=O)CC2)cc1OC (stereo not given)
EC50 [1]: > 350 µM (not active)
EC50 [2]: > 350 µM (not active)
EC50 [3]: > 54.7 µM (inactive)
EC50 [4]: > 54.7 µM (inactive)
IC50 [5]: > 89.2 µM (inactive)
EC50 [6]: > 54.7 µM (inactive)

O=C(Nc1cccc2[nH]ncc12)NC1CCc2c1cccc2N1CCCC1 (stereo not given)
Ki [7]: 2.51 µM (active)
Ki [8]: 0.794 µM (active)

COc1ccc(-c2cc(=O)c3c(O)c(OC)c(OC)cc3o2)cc1O [EUPATORIN]
Ki [9]: 1 µM (active)
Ki [10]: 0.794 µM (active)
Ki [11]: 0.0398 µM (active)

O=C1NC(=S)N(c2ccccc2)C1=O
Ki [12]: 79.4 µM (active)
Ki [13]: 79.4 µM (active)

CCC(C)(C)c1ccc2c(c1)C(=O)c1ccccc1C2=O
IC50 [14]: 2.38 µM (active)
IC50 [15]: 2.88 µM (active)
IC50 [16]: 2.05 µM (active)
IC50 [17]: 1.31 µM (active)

Cc1ccc(F)c(NC(=O)Nc2ccc(-c3coc4c(-c5cccnc5)cnc(N)c34)cc2)c1
Ki [18]: > 100 µM (inactive)
Ki [19]: 0.000251 µM (active)

N#Cc1c(N2CCN(C(=O)c3ccco3)CC2)nc(-c2ccccc2)c2c1CCCC2
EC50 [20]: 2.31 µM (active)
EC50 [21]: > 60 µM (not active)
IC50 [22]: > 64.6 µM (inactive)
IC50 [23]: > 64.6 µM (inactive)

O=C(O)Cn1nc(-c2ccccc2)c2ccccc21
AC50 [24]: > 260 µM (inactive)

C[C@@H]1CN([C@@H](C)CO)C(=O)c2cc(NC(=O)Cc3cn(C)c4ccccc34)ccc2O[C@H]1CN(C)S(=O)(=O)c1ccc(F)cc1
AC50 [25]: 2.08 µM (active)

CCOc1ccc(Oc2c(Br)nn(Cc3cccc4ccccc34)c(=O)c2Cl)cc1
IC50 [26]: 18.3 µM (inactive)
IC50 [27]: > 20 µM (inactive)

CCSc1cc(N2CCOCC2)nc(-c2ccccc2)n1
EC50 [28]: 0.016 µM (active)

COC(=O)C(Nc1nc(SCC(=O)NC2CCCCC2)nc2ccccc12)c1ccccc1 (stereo not given)
CC50 [29]: > 100 µM (active)
CC50 [30]: 70.9 µM (active)
CC50 [31]: 73.2 µM (active)
CC50 [32]: 129 µM (active)
CC50 [33]: > 50 µM (active)
CC50 [34]: 41.1 µM (active)
CC50 [35]: 66 µM (active)
